Measured values reported in patent US10336762B2 (priority 2017, dated 2019).
pEC50, pIC50: −log10 of the molar value. Where two headings read alike, the source gives them in different places.

How the values were obtained:
IRAK4 enzyme = IRAK4 enzyme (Homo sapiens (Human), UniProt Q9NWZ3); assay: biochemical; type: biochemical; settings: IRAK4 enzyme, 500 μM ATP
TNFα = assay: cells; type: cell-based, human; settings: LPS-stimulated human monocytes, read-out: EC50 TNF
[1] = Homo sapiens, Monocyte, TNFα content
[2] = Homo sapiens, Monocyte, TNFα by TR-FRET

Sequence of IRAK4 enzyme (Q9NWZ3 whole entry): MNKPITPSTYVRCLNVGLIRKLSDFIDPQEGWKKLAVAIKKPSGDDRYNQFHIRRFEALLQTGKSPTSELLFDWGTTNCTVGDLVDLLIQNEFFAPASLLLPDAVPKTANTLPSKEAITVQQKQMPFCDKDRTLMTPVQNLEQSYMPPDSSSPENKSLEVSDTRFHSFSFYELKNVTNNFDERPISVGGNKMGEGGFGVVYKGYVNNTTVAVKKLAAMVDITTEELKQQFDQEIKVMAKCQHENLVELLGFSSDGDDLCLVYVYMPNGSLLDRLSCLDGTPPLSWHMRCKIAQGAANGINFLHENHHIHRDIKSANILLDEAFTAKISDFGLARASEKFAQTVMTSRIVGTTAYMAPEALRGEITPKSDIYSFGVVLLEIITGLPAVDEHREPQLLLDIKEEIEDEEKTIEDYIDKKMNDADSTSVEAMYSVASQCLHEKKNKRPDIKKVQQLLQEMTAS

Row | Structure (SMILES) | pIC50 (IRAK4 enzyme; TR-FRET) | pEC50 (TNFα; [1]) | pEC50 (TNFα; [2]) | pIC50 (IRAK4 enzyme; TR-FRET (HTRF)) | pEC50 (TNFα; TNFα content)
1 | CC(C)(O)[C@H](F)CNC(=O)c1cnc(-c2ccc3cc(C#N)cnn23)cc1Nc1cncc(C2CC2)c1 [Example 222, (R)-6-(3-cyanopyrrolo[1,2-b]pyridazin-7-yl)-4-((5-cyclopropylpyridin-3-yl)amino)-N-(2-fluoro-3-hydroxy-3-methylbutyl)nicotinamide] | 9.00 | 6.82 | – | – | –
2 | CC(C)(O)[C@H](F)CNC(=O)c1cnc(-c2ccc3cc(C#N)cnn23)cc1Nc1ccc(C(F)(F)F)nc1 [Example 186, (R)-6-(3-cyanopyrrolo[1,2-b]pyridazin-7-yl)-N-(2-fluoro-3-hydroxy-3-methylbutyl)-4-((6-(trifluoromethyl)pyridin-3-yl)amino)nicotinamide] | 9.00 | 6.84 | – | – | –
3 | CC(C)Nc1cc(-c2ccc3cc(C#N)cnn23)ncc1C(=O)NCC1CS(=O)(=O)C1 [Example 72, 6-(3-cyanopyrrolo[1,2-b]pyridazin-7-yl)-N-((1,1-dioxidothietan-3-yl)methyl)-4-(isopropylamino) nicotinamide] | 8.40 | 6.80 | – | – | –
4 | CC(C)(O)[C@H](F)CNC(=O)c1cnc(-c2ccc3cc(C#N)cnn23)cc1NC[C@H]1COCCN1 [Example 916, 6-(3-cyanopyrrolo[1,2-b]pyridazin-7-yl)-N-((R)-2-fluoro-3-hydroxy-3-methylbutyl)-4-((((S)-morpholin-3-yl)methyl)amino)nicotinamide] | 8.52 | – | 7.06 | – | –
5 | CC(C)(O)[C@H](F)CNC(=O)c1cnc(-c2ccc3cc(C#N)cnn23)cc1NC12CCC(CC1)CC2 [Example 421, (R)-4-(bicyclo[2.2.2]octan-1-ylamino)-6-(3-cyano-pyrrolo[1,2-b]pyridazin-7-yl)-N-(2-fluoro-3-hydroxy-3-methylbutyl)nicotinamide] | – | 7.62 | – | 8.70 | –
6 | CC(C)(O)[C@H](F)CNC(=O)c1cnc(-c2ccc3cc(C#N)cnn23)cc1Nc1ccc(N2CCN(C3COC3)CC2)nc1 [Example 871, (R)-6-(3-cyanopyrrolo[1,2-b]pyridazin-7-yl)-N-(2-fluoro-3-hydroxy-3-methylbutyl)-4-((6-(4-(oxetan-3-yl)piperazin-1-yl)pyridin-3-yl)amino)nicotinamide] | 9.00 | – | 7.29 | – | –
7 | COC1(C)CN(C(=O)C23CCC(Nc4cc(-c5ccc6cc(C#N)cnn56)ncc4C(=O)NC[C@@H](F)C(C)(C)O)(CC2)CC3)C1 [Example 158, (R)-6-(3-cyanopyrrolo[1,2-b]pyridazin 7-yl)-N-(2-fluoro-3-hydroxy-3-methylbutyl)-4-((4-(3-methoxy-3-methylazetidine-1-carbonyl)bicyclo[2.2.2]octan-1-yl)amino)nicotinamide] | 8.70 | 7.00 | – | – | –
8 | CC(=O)NC1(c2ccc(Nc3cc(-c4ccc5cc(C#N)cnn45)ncc3C(=O)NC[C@@H](F)C(C)(C)O)cc2)CC1 [Example 211, (R)-4-((4-(1-acetamidocyclo-propyl)phenyl)amino)-6-(3-cyanopyrrolo[1,2-b]pyridazin-7-yl)-N-(2-fluoro-3-hydroxy-3-methylbutyl)nicotinamide] | 9.00 | 7.30 | – | – | –
9 | CC1(Nc2cc(-c3ccc4cc(C#N)cnn34)ncc2C(=O)NCC#N)COC1 [Example 612, N-(cyanomethyl)-6-(3-cyanopyrrolo[1,2-b]pyridazin-7-yl)-4-((3-methyloxetan-3-yl)amino)nicotinamide] | – | 7.29 | – | > 9.00 | –
10 | CC(C)(O)[C@H](F)CNC(=O)c1cnc(-c2ccc3cc(C#N)cnn23)cc1NC12CCC(C(F)F)(CC1)CC2 [Example 537, (R)-6-(3-cyanopyrrolo[1,2-b]pyridazin-7-yl)-4-((4-(difluoromethyl)bicyclo[2.2.2]octan-1-yl)amino)-N-(2-fluoro-3-hydroxy-3-methylbutyl)nicotinamide] | – | 7.74 | – | 9.00 | –
11 | COC(=O)NCC1(F)CC(Nc2cc(-c3ccc4cc(C#N)cnn34)ncc2C(=O)NC[C@@H](F)C(C)(C)O)C1 (stereo partly drawn) [Example 758, (R)-methyl ((3-((2-(3-cyanopyrrolo[1,2-b]pyridazin-7-yl)-5-((2-fluoro-3-hydroxy-3-methylbutyl)carbamoyl)pyridin-4-yl)amino)-1-fluorocyclobutyl)methyl)carbamate] | – | 7.96 | – | 9.00 | –
12 | COc1ccc2nc(Nc3cc(-c4ccc5cc(C#N)cnn45)ncc3C(=O)NC[C@@H](F)C(C)(C)O)sc2c1 [Example 376, (R)-6-(3-cyanopyrrolo[1,2-b]pyridazin-7-yl)-N-(2-fluoro-3-hydroxy-3-methylbutyl)-4-((6-methoxybenzo[d]thiazol-2-yl)amino)nicotinamide] | 8.70 | 6.13 | – | – | –
13 | CC(C)(C)C(=O)NC[C@H]1C[C@H](Nc2cc(-c3ccc4cc(C#N)cnn34)ncc2C(=O)NC[C@@H](F)C(C)(C)O)C1 [Example 824, 6-(3-cyanopyrrolo[1,2-b]pyridazin-7-yl)-N-((R)-2-fluoro-3-hydroxy-3-methylbutyl)-4-(((1r,3R)-3-(pivalamidomethyl)cyclo-butyl)amino)nicotinamide] | > 9.00 | – | 7.41 | – | –
14 | CC(C)(O)[C@H](F)CNC(=O)c1cnc(-c2ccc3cc(C#N)cnn23)cc1NC12CCC(N3CCC3=O)(CC1)CC2 [Example 405, 6-(3-cyanopyrrolo[1,2-b]pyridazin-7-yl)-N-((R)-2-fluoro-3-hydroxy-3-methylbutyl)-4-((4-(2-oxoazetidin-1-yl)bicyclo[2.2.2]octan-1-yl)amino)nicotinamide] | – | 7.92 | – | 9.00 | –
15 | CCOC(=O)NC[C@H]1C[C@H](Nc2cc(-c3ccc4cc(C#N)cnn34)ncc2C(=O)NC[C@@H](F)C(C)(C)O)C1 [Example 540, ethyl (((1R,3r)-3-((2-(3-cyanopyrrolo[1,2-b]pyridazin-7-yl)-5-(((R)-2-fluoro-3-hydroxy-3-methylbutyl)carbamoyl)pyridin-4-yl)amino)cyclo-butyl)methyl)carbamate] | – | 7.92 | – | > 9.00 | –
16 | CC(C)(O)[C@H](F)CNC(=O)c1cnc(-c2ccc3cc(C#N)cnn23)cc1N[C@@H]1[C@@H]2COC[C@@H]21 [Example 148, 4-(((1R,5S,6s)-3-oxabicyclo[3.1.0]hexan-6-yl)amino)-6-(3-cyano-pyrrolo[1,2-b]pyridazin-7-yl)-N-((R)-2-fluoro-3-hydroxy-3-methylbutyl)nicotinamide] | 8.70 | 6.69 | – | – | –
17 | CC(=O)N1CC[C@H]1CNc1cc(-c2ccc3cc(C#N)cnn23)ncc1C(=O)NC[C@@H](F)C(C)(C)O [Example 889, 4-((((S)-1-acetylazetidin-2-yl)methyl)amino)-6-(3-cyanopyrrolo[1,2-b]pyridazin-7-yl)-N-((R)-2-fluoro-3-hydroxy-3-methylbutyl)nicotinamide] | 8.05 | – | 6.36 | – | –
18 | CC(C)Nc1cc(-c2ccc3cc(C#N)cnn23)ncc1C(=O)NCC1CCS(=O)(=O)C1 (centres unmarked) [Example 73, 6-(3-cyanopyrrolo[1,2-b]pyridazin-7-yl)-N-((1,1-dioxidotetrahydrothiophen-3-yl)methyl)-4-(isopropylamino) nicotinamide] | 8.52 | 6.92 | – | – | –
19 | CC(C)(O)[C@H](F)CNC(=O)c1cnc(-c2ccc3cc(C#N)cnn23)cc1NC12CCC(C(=O)N3CCN(C4COC4)CC3)(CC1)CC2 [Example 395, (R)-6-(3-cyanopyrrolo[1,2-b]pyridazin-7-yl)-N-(2-fluoro-3-hydroxy-3-methylbutyl)-4-((4-(4-(oxetan-3-yl)piperazine-1-carbonyl)bicyclo[2.2.2]octan-1-yl)amino) nicotinamide] | 8.52 | 6.59 | – | – | –
20 | CC(=O)N1CCC[C@@H](Nc2cc(-c3ccc4cc(C#N)cnn34)ncc2C(=O)NC[C@@H](F)C(C)(C)O)C1 [Example 253, 4-(((R)-1-acetylpiperidin-3-yl)amino)-6-(3-cyano-pyrrolo[1,2-b]pyridazin-7-yl)-N-((R)-2-fluoro-3-hydroxy-3-methylbutyl)nicotinamide] | 8.52 | 6.29 | – | – | –
21 | CC(C)(O)[C@H](F)CNC(=O)c1cnc(-c2ccc3cc(C#N)cnn23)cc1N[C@H]1C[C@H](CNC(=O)OCC(F)(F)F)C1 [Example 654, 2,2,2-trifluoroethyl (((1R,3r)-3-((2-(3-cyanopyrrolo[1,2-b]pyridazin-7-yl)-5-(((R)-2-fluoro-3-hydroxy-3-methylbutyl)carbamoyl)pyridin-4-yl)amino)cyclo-butyl)methyl)carbamate] | – | 7.82 | – | > 9.00 | –
22 | COC(=O)NCC1(F)CC(Nc2cc(-c3ccc4cc(C#N)cnn34)ncc2C(=O)NC[C@@H](F)C(C)(C)O)C1 (single isomer, unassigned) [Example 765] | – | – | – | 8.22 | 6.49
23 | COC(=O)N[C@H]1C[C@H](CNC(=O)c2cnc(-c3ccc4cc(C#N)cnn34)cc2NC23CCC(O)(CC2)CC3)C1 [Example 733, methyl ((1r,3r)-3-((6-(3-cyanopyrrolo[1,2-b]pyridazin-7-yl)-4-((4-hydroxybicyclo[2.2.2]octan-1-yl)amino)nicotin-amido)methyl)cyclobutyl) carbamate] | – | 6.61 | – | 8.70 | –
24 | CN1CCC(Nc2cc(-c3ccc4cc(C#N)cnn34)ncc2C(=O)NC[C@@H](F)C(C)(C)O)CC1=O (stereo partly drawn) [Example 155, 6-(3-cyanopyrrolo[1,2-b]pyridazin-7-yl)-N-((R)-2-fluoro-3-hydroxy-3-methylbutyl)-4-((1-methyl-2-oxopiperidin-4-yl)amino) nicotinamide] | 9.00 | 6.82 | – | – | –
25 | CC(=O)OC12CCC(Nc3cc(-c4ccc5cc(C#N)cnn45)ncc3C(=O)NC[C@@H](F)C(C)(C)O)(CC1)CC2 [Example 418, 4-((2-(3-cyanopyrrolo[1,2-b]pyridazin-7-yl)-5-(((R)-2-fluoro-3-hydroxy-3-methylbutyl)carbamoyl)pyridin-4-yl)amino)bicyclo[2.2.2]octan-1-yl acetate] | – | 7.44 | – | 9.00 | –
